From US20130143825A1, “COMPOUNDS FOR USE IN THE TREATMENT OF DISEASES BASED ON THE EXPRESSION OF TOXIC TRANSCRIPTS” (UNIVERSITAT DE VALENCIA, priority 2010, published 2013)

Legend:
FAM-(CUG)23 RNA = test: Fluorescence gel retardation assay with FAM-(CUG)23; format: binding; details: peptide 2.5 mM, RNA 60 nM
Source text: The changes on the RNA caused by p10 in the FP assay are small, probably due to the low molecular weight of the molecule (less than 900 Da). For this reason, it was decided to supplement the study with gel retardation experiments. These assays are based on the differences in electrophoretic mobility between stable protein-nucleic acid complexes and their components separately. Since the FAM-(CUG)23 RNA was available, it was decided to prepare a fluorescence gel retardation assay. After determining the optimal quantity of RNA for detection (60 nM; FIG. 21A), the binding between the latter and MblZF was studied. Said binding caused both a decrease in the intensity of the band corresponding to the free RNA in the gel and the appearance of a signal in the interior of the gel wells (bound RNA).
In order to determine whether p10 could bind to CUG RNA molecules, it was decided to perform a similar gel retardation experiment between the peptide and FAM-(CUG)23. p10 bound to the RNA, with part of the complex being retained in the well, as described for MblZF. […] This affinity decreased upon decreasing the size of the repeats (FAM-(CUG)4, FIG. 24C). […] This could be due either to a synergic effect between the protein and the peptide or to an additive effect if both should bind to different RNA sites.
In order to study the specificity of the binding observed between p10 and the CUG repeats, two experiments were performed. In the first place, the five hexapeptides generated during the alanine scanning were assayed. […] In the second place, we studied the effect of p10 on other RNA and DNA sequences, both double-stranded and single-stranded, fluorescently labelled with carboxyfluorescein (FAM) (FIG. 25C).

[1] = tested on: AAG, CGG, CCUG and CAG repeats; test: Tryptophan extinction assay with repeats different from CUG; format: binding; details: RNA probe 5, 7.5, 10 μM (ppyawa: 10 μM)
Experimental: This figure illustrates an experiment which tested p10 and its capacity to bind to repeats different from CUG repeats, but which are also involved in diseases where the toxicity of RNAs with repeat expansions has been described. The tryptophan extinction assay was used, using (1) p10+AAG, CGG, CCUG and CAG at different RNA concentrations (5 μM, 7.5 μM and 10 μM).
On the other hand, as represented in FIG. 30, the peptides of the invention (particularly p10) have different binding affinities to hairpin loops formed by repeats other than CUG repeats, such as, for example AAG, CGG, CCUG and CAG. In this example, we tested p10 and its capacity to bind to repeats different from CUG repeats, but which are also involved in diseases where the toxicity of RNAs with long repeats has been described. […] Three assay points were used (3 different probe concentrations), with two measurements in each. The results were normalised to the signal offered by p10 alone. […] A single assay point is shown (probe at 10 μM). The results are shown non-normalised in order to be able to include the initial value of the peptides tested.

[2] = tested on: 103Y-Gal4/+;UAS-CTG(480)/+ flies; test: Lethality phenotype in pupae caused by expression of 480 CTG under 103Y-Gal4 (females born); format: in vivo, Drosophila; details: administered to larvae in the food; compared with p10
Experimental: The 120 vials that make up the chemical library were individually assayed on the lethality phenotype in pupae caused by the expression of 480 CTG under the control of 103Y-Gal4 at a concentration of 80 μM. […] Thus, for positions O1, O2, O3, O4, O5 and O6 of the hexapeptide, a total of six, three, six, four, two and seven active amino acids were obtained, respectively (FIG. 2A). In order to perform the deconvolution, 10 of these 28 amino acids were selected, on the basis of their degree of activity in the biological assay (FIG. 2A). Finally, of the possible combinations, 16 sequences were selected to perform the synthesis of the defined hexapeptides (FIG. 2B). The selection of these 16 peptides was based on redundancy criteria between the physical and chemical properties of active amino acids in similar positions.
At 250 μM, the activity of the peptide decreased, possibly due to a toxic effect of the peptide at higher concentrations.
In order to determine the contribution of each of the p10 residues to their activity on CTG(480), an alanine scanning experiment was performed. These experiments are based on substituting every amino acid of the peptide with alanine and keeping the rest. Alanine is a small amino acid and, in general, not very active; this is why it is used for this type of studies. Since each alanine substitution examines the contribution of an individual amino acid, this experiment makes it possible, on the one hand, to evaluate whether p10 is susceptible to optimisation (in the event that a substitution increases the efficacy of the molecule), or to determine which amino acids are important for its function (in the event that a substitution decreases the activity thereof). The sequence of p10 allows for 5 substitutions; for this reason, 5 new hexapeptides were synthesised which were assayed in relation to the lethality phenotype in 103Y-Gal4; UAS-CTG(480)/+ flies and commercial food.

2-AP-(CUG)23 RNA = test: 2-aminopurine fluorescence assay (hairpin opening); format: biochemical; details: peptide 100 μM, RNA 1 μM (1:100)
Method in brief: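 2-AP-labelled (CUG)23 RNA (1 μM) was incubated with peptides at 100 μM (RNA:peptide 1:100), or with MblZF at 0.1–5 μM. 2-aminopurine emission at 375 nm is expressed relative to free RNA, with higher fluorescence indicating a shift from hairpin to single-stranded.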

CUG60 RNA = test: Circular dichroism of CUG60 RNA; format: binding; details: RNA 1 μM, p10 0.1-20 μM, MblZF 1 and 1.5 μM, ppyawa 0.5 and 1 μM, payawe 1 μM
Experimental: However, this effect was not reverted when the RNA was incubated jointly with MblZF and p10, regardless of the order of addition (C).
In order to study possible changes in the secondary structure of RNA induced by p10, in the first place we performed a circular dichroism (CD) experiment, using an RNA with unlabelled CUG repeats (CUG60). The circular dichroism of nucleic acids is caused by the stacking of the bases that make up the sequence thereof. Consequently, when a molecule binds to RNA, affecting the structure thereof, a change is detected in its CD spectrum. […] When we incubated the RNA with increasing concentrations of the peptide of SEQ ID NO: 10 (0.1 μM, 0.5 μM, 1 μM, 10 μM and 20 μM), a similar effect was observed (FIG. 27B). During the readings, the RNA was kept in the cuvette inside the dichrograph at 10° C. Throughout the 3 hours of each experiment, it was possible for the RNA to have been degraded; this would explain the decrease in the intensity of the signal observed. In order to rule out this possibility, the CD spectrum of CUG60 RNA was measured at times 0 and 3 h, having kept the CUG60 RNA at 10° C. at all times.

significant binding to FAM-(CUG)23 RNA (FAM-(CUG)23 RNA): None
Substance: ppyawa
change of tryptophan fluorescence intensity in the presence of repeats [1]: increase in intensity | activity on lethality phenotype (number of females), alanine scanning [2]: loss of activity | increase in the fluorescence emission of 2-AP-(CUG)23 (2-AP-(CUG)23 RNA): None of these peptides caused changes | change of circular dichroism spectrum of CUG60 (CUG60 RNA): did not occur | change of circular dichroism spectrum of CUG60 (CUG60 RNA; listed as p29.1): did not change the RNA spectrum
